Results as given in the supplement of paper PMC4862054.

Key:
[1] = system: BT-474; conditions: 72 h
Method in brief: (§1)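 Breast cancer cell lines (20 µl suspension) were seeded into 384-well plates holding compound at 5 concentrations in 10-fold steps over a compound-specific 10,000-fold range, then incubated 72 h. Cell death was read first by CellTox Green fluorescence (485/520 nm), then viability by CellTiter-Glo luminescence after 10 min at room temperature. Each plate was normalised to 0.1 % DMSO and a positive kill control. EC50 was fitted from the dose-response curves and censored at the top concentration.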

[2] = system: HDQ-P1; conditions: 72 h
Method in brief: as §1

[3] = system: MDA-MB-468; conditions: 72 h
Method in brief: as §1

[4] = system: DU-4475; assay: normalised viability (% of control), CellTiter-Blue; higher = more viable cells (about 100 = DMSO control); conditions: 10 nM; incubation time: 72 h
Protocol: (§2)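 DSRT, CellTiter-Blue viability, 72 h incubation. Signal is normalised to DMSO and benzethonium chloride controls. Value is the normalised response at dose 3.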

[5] = system: BT-474; assay: as above; conditions: 100 nM; incubation time: 72 h
Protocol: as §2

[6] = system: CAL-148; assay: as above; conditions: 10 nM; incubation time: 72 h
Protocol: as §2

[7] = system: CAL-85-1; assay: as above; conditions: 10 nM; incubation time: 72 h
Protocol: as §2

[8] = system: MFM-223; assay: as above; conditions: 100 nM; incubation time: 72 h
Protocol: as §2

[9] = system: SK-BR-3; assay: as above; conditions: 100 nM; incubation time: 72 h
Protocol: as §2

[10] = system: HCC1937; assay: as above; conditions: 100 nM; incubation time: 72 h
Protocol: as §2

[11] = system: BT-549; assay: as above; conditions: 100 nM; incubation time: 72 h
Protocol: as §2

[12] = system: HDQ-P1; assay: as above; conditions: 10 nM; incubation time: 72 h
Protocol: as §2

[13] = system: Hs578T; assay: as above; conditions: 100 nM; incubation time: 72 h
Protocol: as §2

[14] = system: HCC1143; assay: as above; conditions: 100 nM; incubation time: 72 h
Protocol: as §2

[15] = system: MDA-MB-231; assay: as above; conditions: 100 nM; incubation time: 72 h
Protocol: as §2

[16] = system: HCC1599; assay: as above; conditions: 100 nM; incubation time: 72 h
Protocol: as §2

[17] = system: MDA-MB-453; assay: as above; conditions: 10 nM; incubation time: 72 h
Protocol: as §2

[18] = system: CAL-51; assay: as above; conditions: 10 nM; incubation time: 72 h
Protocol: as §2

[19] = system: CAL-120; assay: as above; conditions: 100 nM; incubation time: 72 h
Protocol: as §2

[20] = system: MDA-MB-468; assay: as above; conditions: 100 nM; incubation time: 72 h
Protocol: as §2

[21] = system: MDA-MB-436; assay: as above; conditions: 100 nM; incubation time: 72 h
Protocol: as §2

[22] = system: SK-BR-3; assay: normalised viability (% of control), CellTiter-Blue; higher = more viable cells (about 100 = DMSO control); conditions: incubation time: 72 h
Method in brief: (§3)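 Compound dissolved in 5 µl medium was pre-loaded into 384-well plates, and breast cancer cell lines in 20 µl suspension were seeded on top and incubated 72 h. After adding 2.5 µl CellTiter-Blue reagent for 2 h at 37 °C, fluorescence was read at 560/590 nm. Plates were normalised to vehicle (100) and a positive kill control (0), with Z'-factor quality control. Each value is normalised viability at a single listed concentration from the series.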

[23] = system: BT-549; assay: as above; conditions: incubation time: 72 h
Method in brief: as §3

[24] = system: MDA-MB-453; assay: as above; conditions: incubation time: 72 h
Method in brief: as §3

[25] = system: CAL-51; assay: as above; conditions: incubation time: 72 h
Method in brief: as §3

[26] = system: CAL-120; assay: as above; conditions: incubation time: 72 h
Method in brief: as §3

[27] = system: MDA-MB-468; assay: as above; conditions: incubation time: 72 h
Method in brief: as §3

SMILES	EC50, CellTiter-Glo [1] [µM]	EC50, CellTiter-Glo [2] [µM]	EC50, CellTiter-Glo [3] [µM]	normalised viability [4] [%]	normalised viability [5] [%]	normalised viability [6] [%]	normalised viability [7] [%]	normalised viability [8] [%]	normalised viability [9] [%]	normalised viability [10] [%]	normalised viability [11] [%]	normalised viability [12] [%]	normalised viability [13] [%]	normalised viability [14] [%]	normalised viability [15] [%]	normalised viability [16] [%]	normalised viability [17] [%]	normalised viability [18] [%]	normalised viability [19] [%]	normalised viability [20] [%]	normalised viability [21] [%]	normalised viability ([22]; 10 nM) [%]	normalised viability ([22]; 1000 nM) [%]	normalised viability ([22]; 10000 nM) [%]	normalised viability ([23]; 10 nM) [%]	normalised viability ([23]; 1000 nM) [%]	normalised viability ([23]; 10000 nM) [%]	normalised viability ([24]; 3 nM) [%]	normalised viability ([24]; 30 nM) [%]	normalised viability ([24]; 100 nM) [%]	normalised viability ([25]; 3 nM) [%]	normalised viability ([25]; 30 nM) [%]	normalised viability ([25]; 100 nM) [%]	normalised viability ([26]; 10 nM) [%]	normalised viability ([26]; 1000 nM) [%]	normalised viability ([26]; 10000 nM) [%]	normalised viability ([27]; 10 nM) [%]	normalised viability ([27]; 1000 nM) [%]	normalised viability ([27]; 10000 nM) [%]
Cn1cc(C2=Nc3cc(NC(=O)C(N)C4CCCCC4)cc4c3C2=CNNC4=O)cn1 (stereo not given)	2.29	9.68	0.396	108	108	93.1	81.8	69.2	38.4	90.7	100	98.4	87.3	101	83.3	75.9	85.9	98.2	89.9	106	93.4	81.8	13.8	10.8	80.9	37.4	18.6	96.7	94.9	72.4	104	87.2	93	96.5	57.2	27	112	19.4	10.4
COc1cc2c(cc1O)CC[C@@H]1[C@@H]2CC[C@]2(C)[C@@H](O)CC[C@@H]12 [2-methoxyestradiol]	0.573	7.46	2.8	106	121	93.3	101	108	99.2	103	91.7	98.8	103	99.8	94.3	95	95.3	118	87.9	102	100	97.6	101	20.2	89.1	51.7	17.6	114	87.5	96.7	122	114	106	105	61.4	24.2	111	97.2	50.1
Cc1sc2c(c1C)C(c1ccc(Cl)cc1)=N[C@@H](CC(=O)OC(C)(C)C)c1nnc(C)n1-2 [(+)JQ1]	0.113	0.129	0.487	88.3	110	94.7	101	85.1	98.3	98.4	80.9	98.4	72.6	92.2	95.9	100	108	98.5	79.1	108	136	117	53.9	51.8	108	53.8	36.9	111	107	84.5	100	96.9	104	83.2	47.7	49.2	107	71.8	52.2
CC1(C)CCC(CN2CCN(c3ccc(C(=O)NS(=O)(=O)c4ccc(NCC5CCOCC5)c([N+](=O)[O-])c4)c(Oc4cnc5[nH]ccc5c4)c3)CC2)=C(c2ccc(Cl)cc2)C1 [ABT-199]	–	–	> 10	–	–	–	–	–	–	–	–	–	–	–	–	–	–	–	–	–	–	–	–	–	–	–	–	–	–	–	–	–	–	–	–	–	–	–	–
O=C1CN2Cc3c(ccc(Cl)c3Cl)N=C2N1 [Anagrelide]	> 10	–	–	98.6	122	97	91.6	93	60.9	94.9	92.5	114	88	84.8	99.2	104	109	98.7	85.6	95.2	94.2	119	110	107	88.7	89.1	99.4	110	102	98.5	110	96.5	84.3	91.3	91.9	86.2	106	103	111
